The term IC50 denotes the concentration that inhibits the measured activity by half. Read a high IC50 as weaker potency in that assay.

Results on 19 molecules are retold here after ChEMBL document CHEMBL1759869, “Discovery of spirocyclic sulfonamides as potent Akt inhibitors with exquisite selectivity against PKA” (Bioorg Med Chem Lett, 2011).

Assay [1] deals with T1, RAC-alpha serine/threonine-protein kinase (Homo sapiens, UniProt P31749). Briefly: Inhibition of AKT1-mediated PRAS40 phosphorylation in human LNCaP cells. In kind it is cell-based.
For assay [2], the target named is T1, RAC-alpha serine/threonine-protein kinase. Briefly: Inhibition of Akt1.
Assay [3] in a line: Selectivity ratio of IC50 for PKA to IC50 for Akt1.
Assay [4] is described as follows: Inhibition of PKA.

T1 sequence (P31749 whole entry): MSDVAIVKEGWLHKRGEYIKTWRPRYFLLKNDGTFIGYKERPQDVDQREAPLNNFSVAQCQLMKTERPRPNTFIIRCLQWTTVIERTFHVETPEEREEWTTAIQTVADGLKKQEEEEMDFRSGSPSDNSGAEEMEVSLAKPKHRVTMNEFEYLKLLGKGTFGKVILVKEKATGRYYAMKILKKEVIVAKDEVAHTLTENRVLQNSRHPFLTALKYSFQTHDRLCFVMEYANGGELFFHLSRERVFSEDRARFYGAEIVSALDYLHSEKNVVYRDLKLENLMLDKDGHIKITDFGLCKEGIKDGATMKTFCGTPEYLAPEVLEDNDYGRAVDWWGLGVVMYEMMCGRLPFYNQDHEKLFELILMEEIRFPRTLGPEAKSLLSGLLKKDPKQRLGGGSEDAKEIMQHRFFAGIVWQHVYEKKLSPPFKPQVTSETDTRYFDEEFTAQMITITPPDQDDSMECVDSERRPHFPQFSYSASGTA

On to `CCOCCN(C[C@@H](O)CN1CCCC2(CCN(c3ncnc4n[nH]c(C)c34)C2)C1)S(=O)(=O)c1c(C)cccc1C` (some centres undefined), for which the concentration for half-maximal inhibition (IC50) in assay [1] worked out at 0.31 µM; in assay [2], 0.021 µM.

For the molecule `CCOCCN(C[C@@H](O)CN1CCCC2(CCN(c3ncncc3C3CC3)C2)C1)S(=O)(=O)c1c(C)cccc1C` (some centres undefined), the IC50 in assay [1] worked out at 0.74 µM; in assay [2], 0.012 µM; in assay [4], 3.4 µM. Further, in assay [3], the Ratio IC50 was found to be 280.

Consider `CCOCCN(C[C@@H](O)CN1CCCC2(CCN(c3ncnc4[nH]cc(C)c34)C2)C1)S(=O)(=O)c1c(C)cccc1C` (some centres undefined), for which the values for the half-maximal inhibitory concentration (IC50) in assay [1], in assay [2] and in assay [4] were 0.18 µM, 0.002 µM and 0.067 µM, respectively. Moreover, the Ratio IC50 in assay [3] stood at 28.

Regarding `Cc1cccc(C)c1S(=O)(=O)NC[C@@H](O)CN1CCC[C@@]2(CCN(c3ncnc(N)c3C3CC3)C2)C1`, the half-maximal inhibitory concentration (IC50) in assay [1] amounted to 0.9 µM; in assay [2], 0.004 µM; in assay [4], 3.4 µM. Besides, the Ratio IC50 in assay [3] was found to be 850.

On to `CCOCCN(C[C@@H](O)CN1CCCC2(CCN(c3ncnc4ccccc34)C2)C1)S(=O)(=O)c1c(C)cccc1C` (some centres undefined), for which the half-inhibitory concentration (IC50) is 2.4 µM in assay [1] and 4.7 µM in assay [4].

As to `Cc1cccc(C)c1S(=O)(=O)N1CCC[C@@H]1[C@@H](O)CN1CCC[C@@]2(CCN(c3ncnc(N)c3C3CC3)C2)C1`, the 50% inhibitory concentration (IC50) in assay [1] was found to be 2.4 µM; in assay [2], 0.019 µM; in assay [4], 4.7 µM. Further, the Ratio IC50 in assay [3] is 250.

Consider `Nc1ncnc(N2CC[C@@]3(CCCN(C[C@H](O)CNS(=O)(=O)c4ccccc4F)C3)C2)c1C1CC1`, for which the IC50 in assay [1] was 14 µM; in assay [2] it was 0.081 µM; in assay [4] it was over 10 µM. Besides, the Ratio IC50 in assay [3] was over 120.

On to `Cc1ccncc1S(=O)(=O)NC[C@@H](O)CN1CCC[C@@]2(CCN(c3ncnc(N)c3C3CC3)C2)C1`, for which the IC50 in assay [2] was 1.1 µM; in assay [4] it was over 10 µM. Also, the Ratio IC50 in assay [3] was over 9.

For the molecule `Cc1ccccc1S(=O)(=O)NC[C@@H](O)CN1CCC[C@@]2(CCN(c3ncnc(N)c3C3CC3)C2)C1`, the 50% inhibitory concentration (IC50) in assay [1] was found to be 1.2 µM; in assay [2], 0.009 µM; in assay [4], 5 µM. Further, in assay [3], the Ratio IC50 came to 560.

On to `CCOCCN(C[C@@H](O)CN1CCCC2(CCN(c3ncnc4[nH]nc(C)c34)C2)C1)S(=O)(=O)c1c(C)cccc1C` (some centres undefined), for which, in assay [3], the Ratio IC50 came to 27. This molecule had a 50% inhibitory concentration (IC50) in assay [4] of 0.56 µM.

Regarding `CCOCCN(C[C@@H](O)CN1CCCC2(CCN(c3ncnc4[nH]cc(C)c34)CC2)C1)S(=O)(=O)c1c(C)cccc1C`, the concentration for half-maximal inhibition (IC50) amounted to 1.2 µM in assay [1], 0.041 µM in assay [2] and 0.21 µM in assay [4]. Besides, in assay [3], the Ratio IC50 was 5.

With `Cc1ccc(S(=O)(=O)NC[C@@H](O)CN2CCC[C@@]3(CCN(c4ncnc(N)c4C4CC4)C3)C2)c(C)c1`, the half-inhibitory concentration (IC50) in assay [1] is 18 µM; in assay [2], 0.16 µM; in assay [4], over 10 µM. Further, the Ratio IC50 in assay [3] was over 63.

Consider `Cc1noc(C)c1S(=O)(=O)NC[C@@H](O)CN1CCC[C@@]2(CCN(c3ncnc(N)c3C3CC3)C2)C1`, for which the results for the 50% inhibitory concentration (IC50) in assay [1], in assay [2] and in assay [4] were 0.49 µM, 0.003 µM and 1.9 µM, respectively. Also, the Ratio IC50 in assay [3] was 630.

In the case of `Cc1cccc(C)c1S(=O)(=O)N1CCC[C@H]1[C@@H](O)CN1CCC[C@@]2(CCN(c3ncnc(N)c3C3CC3)C2)C1`, the IC50 in assay [1] was found to be 0.69 µM; in assay [2], 0.009 µM; in assay [4], 3.9 µM. In assay [3], the Ratio IC50 stood at 430.

Regarding `Cc1cc(F)ccc1S(=O)(=O)NC[C@@H](O)CN1CCC[C@@]2(CCN(c3ncnc(N)c3C3CC3)C2)C1`, the IC50 in assay [1] is 2.2 µM; in assay [2], 0.008 µM; in assay [4], 7.8 µM. In assay [3], the Ratio IC50 amounted to 970.

With `Nc1ncnc(N2CC[C@@]3(CCCN(C[C@H](O)CNS(=O)(=O)c4ccccc4Br)C3)C2)c1C1CC1`, the IC50 in assay [1] is 2 µM; in assay [2] it was 0.017 µM; in assay [4], 9.4 µM. In assay [3], the Ratio IC50 is 550.

As to `CCOCCN(C[C@@H](O)CN1CCCC2(CCN(c3ncnc(N)c3C3CC3)C2)C1)S(=O)(=O)c1c(C)cccc1C` (mixture of isomers), the half-inhibitory concentration (IC50) is 0.47 µM in assay [1], 0.012 µM in assay [2] and 2.2 µM in assay [4]. The Ratio IC50 in assay [3] came to 180.

Consider `Cc1cccc(C)c1S(=O)(=O)N1CCC[C@H]1[C@H](O)CN1CCC[C@@]2(CCN(c3ncnc(N)c3C3CC3)C2)C1`, for which the values for the IC50 in assay [1], in assay [2] and in assay [4] were 13 µM, 0.25 µM and over 10 µM, respectively. Also, in assay [3], the Ratio IC50 was over 40.

As to `Nc1ncnc(N2CC[C@@]3(CCCN(C[C@H](O)CNS(=O)(=O)c4ccccc4Cl)C3)C2)c1C1CC1`, the IC50 in assay [1] was found to be 1.9 µM; in assay [2], 0.009 µM; in assay [4], 8.3 µM. Further, the Ratio IC50 in assay [3] stood at 920.
